From the supplement of paper PMC10627819

Tests used:
Assay in all cases: fitness (endpoint OD595 vs no drug) (fraction); higher = more growth
[1] = system: S. aureus Newman
Outline: (§1)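 Bacterial growth was followed in 384-well plates seeded at OD595 0.01, with 30 µl per well, or 55 µl for S. pneumoniae, in TSB, LB Lennox or CY at 37 °C. OD595 was read every 30 min for 14 h, and each reading had the first reading subtracted as background. Fitness is the background-corrected optical density at entry into stationary phase divided by the robust mean of the no-drug control wells. This ratio is capped at 1.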

[2] = system: S. pneumoniae D39V
Outline: as §1

[3] = system: B. subtilis 168
Outline: as §1

CC[C@H]1OC(=O)[C@H](C)[C@@H](O[C@H]2C[C@@](C)(OC)[C@@H](O)[C@H](C)O2)[C@H](C)[C@@H](O[C@@H]2O[C@H](C)C[C@H](N(C)C)[C@H]2O)[C@](C)(O)C[C@@H](C)CN(C)[C@H](C)[C@@H](O)[C@]1(C)O [Azithromycin] + CC1(C)S[C@@H]2[C@H](NC(=O)Cc3ccccc3)C(=O)N2[C@H]1C(=O)O [Penicillin G]
fitness, [1]
Conditions	first compound 0.125 µg/mL	first compound 0.25 µg/mL	first compound 0.5 µg/mL
partner 0.0195 µg/mL	0.844	0.729	0.513
partner 0.039 µg/mL	0.822	0.77	0.452
partner 0.078 µg/mL	0.775	0.741	0.411

CC1=C(C(=O)O)N2C(=O)[C@@H](NC(=O)[C@H](N)c3ccccc3)[C@H]2SC1 [Cephalexin] + CC1(C)S[C@@H]2[C@H](NC(=O)Cc3ccccc3)C(=O)N2[C@H]1C(=O)O [Penicillin G]
fitness, [1]
Conditions	first compound 0.25 µg/mL	first compound 0.5 µg/mL	first compound 1 µg/mL
partner 0.0195 µg/mL	0.891	0.785	0.811
partner 0.039 µg/mL	0.927	0.937	0.908
partner 0.078 µg/mL	0.875	0.897	0.944

O=C(O)[C@H]1/C(=C/CO)O[C@@H]2CC(=O)N21 [Clavulanic acid] + C/C(=C\C(=O)OCCCCCCCCC(=O)O)C[C@@H]1OC[C@H](C[C@@H]2O[C@H]2[C@@H](C)[C@H](C)O)[C@@H](O)[C@H]1O [Pseudomonic acid]
fitness, [2]
Conditions	first compound 0.5 µg/mL	first compound 1 µg/mL	first compound 2 µg/mL
partner 0.03 µg/mL	0.921	0.906	0.832
partner 0.06 µg/mL	0.769	0.803	0.656
partner 0.12 µg/mL	0.408	0.519	0.277

O=C(O)[C@H]1/C(=C/CO)O[C@@H]2CC(=O)N21 [Clavulanic acid] + CC1(C)S[C@@H]2[C@H](NC(=O)Cc3ccccc3)C(=O)N2[C@H]1C(=O)O [Penicillin G]
fitness, [1], one replicate
Conditions	first compound 0.03125 µg/mL	first compound 0.0625 µg/mL	first compound 0.125 µg/mL
partner 0.0195 µg/mL	0.934	0.859	0.796
partner 0.039 µg/mL	0.851	0.819	0.712
partner 0.078 µg/mL	0.846	0.694	0.613

O=C(O)[C@H]1/C(=C/CO)O[C@@H]2CC(=O)N21 [Clavulanic acid] + CC(=O)NC[C@H]1CN(c2ccc(N3CCOCC3)c(F)c2)C(=O)O1 [Linezolid]
[3], partner 0.0625 µg/mL, one replicate
Conditions	fitness
first compound 1.5 µg/mL	0.85
first compound 3 µg/mL	0.773
first compound 6 µg/mL	0.789

fitness
Conditions	partner 0.105 µg/mL	partner 0.125 µg/mL	partner 0.2 µg/mL	partner 0.21 µg/mL	partner 0.25 µg/mL	partner 0.4 µg/mL	partner 0.42 µg/mL	partner 0.5 µg/mL	partner 0.8 µg/mL
[2], first compound 0.5 µg/mL	0.808	–	0.474	0.658	–	0.261	0.453	–	0.075
[2], first compound 1 µg/mL	0.801	–	0.531	0.67	–	0.363	0.443	–	0.226
[2], first compound 2 µg/mL	0.749	–	0.392	0.567	–	0.22	0.238	–	0.102
[3], first compound 1.5 µg/mL	–	0.659	–	–	0.247	–	–	0.0633	–
[3], first compound 3 µg/mL	–	0.597	–	–	0.184	–	–	0.025	–
[3], first compound 6 µg/mL	–	0.585	–	–	0.151	–	–	0.0316	–

O=C(O)[C@H]1/C(=C/CO)O[C@@H]2CC(=O)N21 [Clavulanic acid] + CCC(C)C1C(=O)NC(=C)C(=O)NC(C(=O)NC(CSCC(C(=O)N1)NC(=O)/C(=C/C)/NC(=O)C(C(C)CC)N)C(=O)NC2C(SCC(NC(=O)CNC(=O)C3CCCN3C2=O)C(=O)NC(CCCCN)C(=O)NC4C(SCC(NC(=O)CNC(=O)C(NC(=O)C(NC(=O)C(NC(=O)CNC4=O)C)CC(C)C)CCSC)C(=O)NC(CC(=O)N)C(=O)NC(CCSC)C(=O)NC(CCCCN)C(=O)NC5C(SCC6C(=O)NC(C(=O)NC(CSC(C(C(=O)N6)NC(=O)C(NC5=O)C)C)C(=O)NC(CO)C(=O)NC(C(C)CC)C(=O)NC(CC7=CN=CN7)C(=O)NC(C(C)C)C(=O)NC(=C)C(=O)NC(CCCCN)C(=O)O)CC8=CN=CN8)C)C)C)CC(C)C [Nisin]
main component drawn
Conditions	fitness
[2], first compound 0.5 µg/mL, partner 0.4275 µg/mL	0.973
[2], first compound 0.5 µg/mL, partner 1.6 µg/mL	0.0053
[2], first compound 0.5 µg/mL, partner 1.71 µg/mL	0.0946
[2], first compound 0.5 µg/mL, partner 3.2 µg/mL	0.0291
[2], first compound 0.5 µg/mL, partner 6.4 µg/mL	0.0063
[2], first compound 1 µg/mL, partner 0.4275 µg/mL	0.982
[2], first compound 1 µg/mL, partner 1.6 µg/mL	0.16
[2], first compound 1 µg/mL, partner 1.71 µg/mL	0.0481
[2], first compound 1 µg/mL, partner 3.2 µg/mL	0.154
[2], first compound 1 µg/mL, partner 6.4 µg/mL	0.16
[2], first compound 2 µg/mL, partner 0.4275 µg/mL	0.929
[2], first compound 2 µg/mL, partner 0.855 µg/mL	0.617
[2], first compound 2 µg/mL, partner 1.6 µg/mL	0.0042
[2], first compound 2 µg/mL, partner 1.71 µg/mL	0.0736
[2], first compound 2 µg/mL, partner 3.2 µg/mL	0.0076
[2], first compound 2 µg/mL, partner 6.4 µg/mL	0.0001
[3], first compound 1.5 µg/mL, partner 0.5 µg/mL	0.814
[3], first compound 1.5 µg/mL, partner 1 µg/mL	0.775
[3], first compound 1.5 µg/mL, partner 2 µg/mL	0.541
[3], first compound 3 µg/mL, partner 0.5 µg/mL	0.797
[3], first compound 3 µg/mL, partner 1 µg/mL	0.769
[3], first compound 3 µg/mL, partner 2 µg/mL	0.595
[3], first compound 6 µg/mL, partner 0.5 µg/mL	0.738
[3], first compound 6 µg/mL, partner 1 µg/mL	0.703
[3], first compound 6 µg/mL, partner 2 µg/mL	0.485

fitness, [3], one replicate, main component drawn
Conditions	partner 1.25 µg/mL	partner 1.6 µg/mL	partner 2.5 µg/mL	partner 3.2 µg/mL	partner 4 µg/mL	partner 5 µg/mL	partner 6.4 µg/mL	partner 8 µg/mL	partner 16 µg/mL
first compound 1.5 µg/mL	0.802	0.697	0.537	0.0178	0.0192	0.0574	0.0673	0.0099	0.0067
first compound 3 µg/mL	0.765	0.733	0.48	0.0108	0.178	0.0615	0.0551	0.0036	0.0134
first compound 6 µg/mL	0.57	0.67	0.182	0.0221	0.117	0.0792	0.0542	0.0002	0
